Common to all, as to assay type: cell-based, human
In experiment [1] the test system is TF1-ITD cells. The experiment in a line: Western blot analysis of TF1-ITD cells upon FLT3 or Src inhibition. The following applies: various concentrations, 24 h, dose-dependent. How it is done:
(§1) FIG. 2. […] Whole cell lysates were subjected to western blot analysis with indicated antibodies. GAPDH, loading control. A. (a-d) Western blot analysis of AML cells upon FLT3 inhibition. […] C. (a-b) Western blot analysis of AML cells upon Src inhibition.
(§2) Cells were lysed using modified RIPA buffer (50 mM Tris-HCl, 150 mM NaCl, 1% NP-40, pH 8.0, 1×protease inhibitor cocktail) and lysates were subjected to western blotting with indicated primary antibodies. Proteins recognized by the antibodies were detected using the Chemiluminescent Detection Kit (Pierce, Thermo Scientific, Rockford, Ill.).
(§3) Since STAT5 was known to be a critical downstream target of FLT3-ITD (Mizuki et al, 2000), we tested STAT5 expression level after treatment with FLT3-specific inhibitors; PKC412 or CEP-701 (Odgerel et al, 2007; Smith et al, 2004). […] We next examined whether FLT3-ITD-induced PRL-3 expression might be mediated by JAK or Src, two distinct upstream activators of STAT5 (Robinson et al, 2005; Spiekermann et al, 2003). […] To investigate the role of Src-mediated phosphorylation of STAT5 in FLT3-ITD positive AML cells. AML cells were treated with two distinct Src kinase inhibitors, SU6656 and PP2 (Blake et al, 2000; Nam et al, 2002).
A general note: Immunoblotting shows a protein as a band on a membrane.

Experiment [2] concerns MOLM-14 cells. In words: Western blot analysis of MOLM-14 cells upon FLT3 inhibition. To be noted: various concentrations, 24 h, dose-dependent. How it is done: as §1, §2, §3
Experiment [3] has as its system TF1-PRL-3 cells. The experiment in a line: MTS cell viability assay of TF1-PRL-3 cells treated with inhibitors. The following applies: 72 hr; for reduction in cell number compared to DMSO-treated control cells: 5 μM. The text has this: FIG. 4. PRL-3 specifically activates c-Jun through ERK and JNK signaling pathways. A. SEAP reporter assay results measuring AP-1 activity in TF-1 cells overexpressing GFP (TF1-GFP) or GFP-PRL-3 (TF1-PRL-3) (mean±SD, n=3). B. (a-b) PRL-3 specifically upregulates c-Jun but not c-Fos. (a) Western blot analysis of TF1-GFP, TF1-PRL-3 and TF1-ITD cells. (b) Western blot analysis after knock-down of endogenous PRL-3 in TF1-ITD cells. GAPDH, loading control. NS, control non-silencing siRNA. C. (a-d) PRL-3-mediated upregulation of c-Jun is dependent on ERK and JNK pathways. (a) Western blot analysis after knock-down of endogenous PRL-3 in TF1-ITD and MOLM-14 cells. (b) Western blot analysis of TF1-GFP and TF1-PRL-3 cells. (c-d) Western blot analysis after knock-down of ERK1/2 or JNK in TF1-PRL-3 cells. GAPDH, loading control. NS, control non-silencing siRNA. D. […] Error bars represent the mean±SD from three independent experiments. AML Cells (1×10^4) were seeded into each well of 96-well tissue culture plates in 100 μl growth media and viable cells were measured after seeding with different inhibitors for 72 hr using the CellTiter^96 Aqueous cell proliferation assay kit. (Promega). Briefly, an aliquot of 20 μl MTS mixture was added at the indicated time of assay and reactions were performed at 37° C. for 2 hours. And absorbance was read at 490 nm wavelength using TECAN microplate reader. After establishment of linear relationship between cell numbers and absorbance from each cell line, acquired absorbance converted to cell number.

SMILES strings stand for the structures.

`CO[C@@H]1[C@H](N(C)C(=O)c2ccccc2)C[C@H]2O[C@]1(C)n1c3ccccc3c3c4c(c5c6ccccc6n2c5c31)C(=O)NC4` [PKC412]: in experiment [1], the PRL-3 protein levels entry is listed as “inhibited”, the “phosphorylation of FLT3” value was “inhibited”, the “phosphorylation of STAT5” value is reported as “inhibited” and the “phosphorylation of Src” value is “inhibited”. Besides, in experiment [2], the PRL-3 protein levels entry is given as “inhibited”, the “phosphorylation of FLT3” value is reported as “inhibited”, the “phosphorylation of STAT5” value was “inhibited” and the “phosphorylation of Src” value is on record as “inhibited”.
Turning to `CC(C)(C)n1nc(-c2ccc(Cl)cc2)c2c(N)ncnc21` [PP2], in experiment [1], the PRL-3 protein levels result is “inhibited”, the “phosphorylation of STAT5” value is recorded as “inhibited” and the “phosphorylation of Src” value was “inhibited”.
Regarding `Oc1c2ccccc2c2c3c(cccc13)N=N2` [SP600125], in experiment [3], the “reduction in cell number compared to DMSO-treated control cells” value was “around 50%”.
With `CN(C)S(=O)(=O)c1ccc2c(c1)/C(=C/c1cc3c([nH]1)CCCC3)C(=O)N2` [SU6656], in experiment [1], the PRL-3 protein levels entry is on record as “inhibited”, the “phosphorylation of STAT5” value was “inhibited” and the “phosphorylation of Src” value was “inhibited”.
For the compound `N#CC(=C(/N)Sc1ccccc1N)/C(C#N)=C(\N)Sc1ccccc1N` [U0126], in experiment [3], the “reduction in cell number compared to DMSO-treated control cells” value is on record as “around 50%”.
On to `COc1cc(/C=C/C(=O)CC(=O)/C=C/c2ccc(O)c(OC)c2)ccc1O` [curcumin], for which the “cell number, % of DMSO-treated cells” value in experiment [3] (15 μM) was “around 50%”.

The record behind these values is patent US20170146538A1, “PRL-3 AS A BIOMARKER FOR THE PROGNOSIS OF CANCER AND A TARGET FOR THERAPY” (Agency for Science, Technology and Research, priority 2014, published 2017).
